Type in all cases: in vivo
Assay [1] has as its system zinnia. The assay is described as follows: Determination of herbicidal activity, post-emergence stem and leaf spray, zinnia. The conditions noted are these: for control effects on zinnia: 150 g a.i./hm^2, after emergence, visual 0-100%; for Herbicidal activity for Zinnia, control effect %: Table 3 parallel comparison. As to the method: (§1) Seeds of broadleaf weeds (zinnia and piemarker) or grassy weeds (green bristlegrass and barnyard grass) were respectively sown in a paper cup having a diameter of 7 cm and containing nutrient soil; after sowing, the seeds were covered with 1 cm of soil; the soil was pressed and watered, and then the seeds were cultivated in a greenhouse according to a conventional method; and stems and leaves were sprayed after 2-3 leaf stage of the weeds.
(§2) After the original medicinal acetone was dissolved, the test requires to use 1‰ of Tween 80 to stand in running water to prepare the solution to be tested with a required concentration. According to the design dose of the test, spray treatment was carried out on a track-type crop sprayer (designed and produced by British Engineer Research Ltd.) (spray pressure is 1.95 kg/cm^2, spray volume is 500 L/hm^2 and track speed is 1.48 km/h). The test was repeated for three times. The test material was treated and then placed in an operation hall. The medicinal liquid was naturally dried in the shade, and then was placed in a greenhouse and managed according to the conventional method. The response of the weeds to the drug was observed and recorded. After treatment, the control effects of the test drug on the weeds were visually inspected regularly, expressed by 0-100%. “0” represents no control effect and “100%” represents complete killing.

For assay [2], the system named is piemarker. The assay can be described thus: Determination of herbicidal activity, post-emergence stem and leaf spray, piemarker. The conditions noted are these: for Herbicidal activity for Piemarker, control effect %: Table 4 parallel comparison; for pest or weed control at 150 g/ha: post-emergence, read-out: control effects on piemarker. As to the method:
as §1, §2

The test system of assay [3] is green bristlegrass. The assay can be described thus: Determination of herbicidal activity, post-emergence stem and leaf spray, green bristlegrass. The conditions noted are these: for Herbicidal activity for Green Bristlegrass, control effect %: Table 5 parallel comparison. As to the method: as §1, §2
For assay [4], the system named is barnyard grass. The assay is described as follows: Determination of herbicidal activity, post-emergence stem and leaf spray, barnyard grass. The conditions noted are these: for Herbicidal activity for Barnyard Grass, control effect %: Table 6 parallel comparison. As to the method:
as §1, §2

[5] abbreviates: 2.34 g a.i./hm^2, after emergence.
[6] abbreviates: 9.375 g a.i./hm^2, after emergence.
[7] abbreviates: 150 g a.i./hm^2, after emergence, visual 0-100%.
Setting [8] is: 37.5 g a.i./hm^2, after emergence.
[9] abbreviates: Table 2, 9.375 g a.i./hm^2, after emergence.
[10] abbreviates: Table 2, 37.5 g a.i./hm^2, after emergence.

Like-named read-outs stand apart in the source and are kept apart here.

In the case of `Cn1c(=S)n(C)c(=O)n(-c2cc(C(=O)OCC(=O)OCCCl)c(Cl)cc2F)c1=O` [Compound 221], the “control effects on zinnia” value in assay [1] worked out at 100%. The “Herbicidal activity for Zinnia, control effect %” value amounted to 85% in assay [1] (setting [5]) and 100% in assay [1] (setting [6]). Moreover, in assay [2] (setting [7]), the “control effects on piemarker” value is on record as 100%. For the same compound, the “Herbicidal activity for Piemarker, control effect %” value in assay [2] (setting [5]) came to 85%; in assay [2] (setting [6]), 100%. The “Herbicidal activity for Green Bristlegrass, control effect %” value in assay [3] (setting [6]) came to 80%; in assay [3] (setting [8]), 90%. The results for the “Herbicidal activity for Barnyard Grass, control effect %” value in assay [4] (setting [6]) and in assay [4] (setting [8]) were 98% and 100%, respectively.

As to `CCOC(=O)[C@H](C)OC(=O)c1cc(-n2c(=O)n(C)c(=S)n(C)c2=O)c(F)cc1Cl` [Compound 250], in assay [1], the “control effects on zinnia” value is 100%. Also, the “Zinnia, control effect %” value in assay [1] (setting [9]) is 70%; in assay [1] (setting [10]), 98%. The “Herbicidal activity for Zinnia, control effect %” value in assay [1] (setting [5]) stood at 80%; in assay [1] (setting [6]) it was 95%. Further, the “control effects on piemarker” value in assay [2] (setting [7]) is reported as 100%. The “Piemarker, control effect %” value in assay [2] (setting [9]) stood at 98%; in assay [2] (setting [10]), 100%. The “Herbicidal activity for Piemarker, control effect %” value in assay [2] (setting [5]) is 85%; in assay [2] (setting [6]), 100%. The “Green Bristlegrass, control effect %” value in assay [3] (setting [9]) and in assay [3] (setting [10]) was 100% throughout. Besides, the “Herbicidal activity for Green Bristlegrass, control effect %” value in assay [3] (setting [6]) is listed as 70%; in assay [3] (setting [8]), 90%. Further, the “Barnyard Grass, control effect %” value turned out to be 50% in assay [4] (setting [9]) and 90% in assay [4] (setting [10]). The “Herbicidal activity for Barnyard Grass, control effect %” value in assay [4] (setting [6]) was 90%; in assay [4] (setting [8]) it was 100%.

Take `Cn1c(=S)n(C)c(=O)n(-c2cc(C(=O)OCC(=O)OCCCCCl)c(Cl)cc2F)c1=O` [Compound 225]: the “control effects on zinnia” value in assay [1] stood at 100%. Moreover, the “Herbicidal activity for Zinnia, control effect %” value is given as 95% in assay [1] (setting [5]) and 100% in assay [1] (setting [6]). Besides, in assay [2] (setting [7]), the “control effects on piemarker” value came to 100%. In addition, the “Herbicidal activity for Piemarker, control effect %” value in assay [2] (setting [5]) stood at 85%; in assay [2] (setting [6]), 100%. Besides, the “Herbicidal activity for Green Bristlegrass, control effect %” value in assay [3] (setting [6]) worked out at 80%; in assay [3] (setting [8]), 90%. Besides, the “Herbicidal activity for Barnyard Grass, control effect %” value was 95% in assay [4] (setting [6]) and 100% in assay [4] (setting [8]).

Turning to `Cn1c(=S)n(C)c(=O)n(-c2cc(C(=O)OCC(=O)OCC3CO3)c(Cl)cc2F)c1=O` (stereo not shown) [Compound 245], the “control effects on zinnia” value in assay [1] was determined as 100%. Besides, the “Herbicidal activity for Zinnia, control effect %” value in assay [1] (setting [5]) stood at 95%; in assay [1] (setting [6]), 100%. The “control effects on piemarker” value in assay [2] (setting [7]) came to 100%. The “Herbicidal activity for Green Bristlegrass, control effect %” value came out at 70% in assay [3] (setting [6]) and 90% in assay [3] (setting [8]). Moreover, the results for the “Herbicidal activity for Barnyard Grass, control effect %” value in assay [4] (setting [6]) and in assay [4] (setting [8]) were 95% and 98%, respectively.

Consider `C=CCOC(=O)[C@@H](C)Oc1cc(-n2c(=O)n(C)c(=S)n(C)c2=O)c(F)cc1Cl` [KC2, reference compound], for which the “Herbicidal activity for Green Bristlegrass, control effect %” value is 20% in assay [3] (setting [6]) and 50% in assay [3] (setting [8]). Besides, the entries for the “Herbicidal activity for Barnyard Grass, control effect %” value in assay [4] (setting [6]) and in assay [4] (setting [8]) were 75% and 90%, respectively.

With `CC(OC(=O)c1cc(-n2c(=O)n(C)c(=S)n(C)c2=O)c(F)cc1Cl)C(=O)OCC1CC1` (stereo not shown) [Compound 291], the “control effects on zinnia” value in assay [1] turned out to be 100%. Also, the entries for the “Herbicidal activity for Zinnia, control effect %” value in assay [1] (setting [5]) and in assay [1] (setting [6]) were 85% and 100%, respectively. The “control effects on piemarker” value in assay [2] (setting [7]) worked out at 100%. The “Herbicidal activity for Piemarker, control effect %” value in assay [2] (setting [5]) turned out to be 85%; in assay [2] (setting [6]) it was 100%. Besides, the “Herbicidal activity for Barnyard Grass, control effect %” value was determined as 90% in assay [4] (setting [6]) and 100% in assay [4] (setting [8]).

Regarding `CCOC(=O)C(C)OC(=O)c1cc(-n2c(=O)n(C)c(=S)n(C)c2=O)c(F)cc1Cl` (racemic) [Compound 248, 2-chloro-4-fluoro-5-(3,5-dimethyl-2,6-dioxo-4-thio-1,3,5-triazine-1-yl) benzoic acid (1-ethoxycarbonyl)ethyl ester], in assay [1], the “control effects on zinnia” value came to 100%. The “Zinnia, control effect %” value was determined as 60% in assay [1] (setting [9]) and 90% in assay [1] (setting [10]). In addition, the “Herbicidal activity for Zinnia, control effect %” value came out at 95% in assay [1] (setting [5]) and 100% in assay [1] (setting [6]). The “Piemarker, control effect %” value in assay [2] (setting [9]) was 90%; in assay [2] (setting [10]), 100%. In addition, the “Herbicidal activity for Piemarker, control effect %” value in assay [2] (setting [5]) was 90%; in assay [2] (setting [6]), 100%. Further, the pest or weed control at 150 g/ha in assay [2] (setting [7]) was 100%. The “Green Bristlegrass, control effect %” value was determined as 70% in assay [3] (setting [9]) and 95% in assay [3] (setting [10]). Further, the “Herbicidal activity for Green Bristlegrass, control effect %” value in assay [3] (setting [6]) was found to be 60%; in assay [3] (setting [8]), 85%. The “Barnyard Grass, control effect %” value in assay [4] (setting [9]) was determined as 95%; in assay [4] (setting [10]) it was 100%. Also, the “Herbicidal activity for Barnyard Grass, control effect %” value in assay [4] (setting [6]) was determined as 90%; in assay [4] (setting [8]) it was 100%.

As for `Cn1c(=S)n(C)c(=O)n(-c2cc(C(=O)OCC(=O)OCCCCl)c(Cl)cc2F)c1=O` [Compound 222, 2-chloro-4-fluoro-5-(3,5-dimethyl-2,6-dioxo-4-thio-1,3,5-triazine-1-yl)benzoic acid (3-chloropropoxycarbonyl) methyl ester], in assay [1], the “control effects on zinnia” value is listed as 100%. Also, the “Herbicidal activity for Zinnia, control effect %” value in assay [1] (setting [5]) and in assay [1] (setting [6]) was 100% in each case. The pest or weed control at 150 g/ha in assay [2] (setting [7]) was 100%. Further, the “Herbicidal activity for Green Bristlegrass, control effect %” value is given as 60% in assay [3] (setting [6]) and 90% in assay [3] (setting [8]).

On to `Cn1c(=S)n(C)c(=O)n(-c2cc(C(=O)OCC(=O)OCC3CC3)c(Cl)cc2F)c1=O` [Compound 241, 2-chloro-4-fluoro-5-(3,5-dimethyl-2,6-dioxo-4-thio-1,3,5-triazine-1-yl)benzoic acid (cyclopropylmethoxycarbonyl) methyl ester], for which the “control effects on zinnia” value in assay [1] turned out to be 100%. The “Herbicidal activity for Zinnia, control effect %” value in assay [1] (setting [5]) and in assay [1] (setting [6]) was 100% each time. In addition, the “Herbicidal activity for Piemarker, control effect %” value in assay [2] (setting [5]) amounted to 98%; in assay [2] (setting [6]) it was 100%. For the same compound, the pest or weed control at 150 g/ha in assay [2] (setting [7]) is 100%. Moreover, the “Herbicidal activity for Green Bristlegrass, control effect %” value in assay [3] (setting [6]) is on record as 80%; in assay [3] (setting [8]), 100%. The “Herbicidal activity for Barnyard Grass, control effect %” value in assay [4] (setting [6]) is listed as 95%; in assay [4] (setting [8]), 98%.

With `CC(OC(=O)c1cc(-n2c(=O)n(C)c(=S)n(C)c2=O)c(F)cc1Cl)C(=O)OC/C=C/Cl` (stereo not shown) [Compound 281, (E)-2-chloro-4-fluoro-5-(3,5-dimethyl-2,6-dioxo-4-thio-1,3,5-triazine-1-yl)benzoic acid (1-(3-chloroallyloxycarbonyl))ethyl ester], in assay [1], the “control effects on zinnia” value turned out to be 100%. Moreover, the “Herbicidal activity for Zinnia, control effect %” value in assay [1] (setting [5]) amounted to 90%; in assay [1] (setting [6]), 100%. Further, the pest or weed control at 150 g/ha in assay [2] was 100%. Also, the results for the “Herbicidal activity for Green Bristlegrass, control effect %” value in assay [3] (setting [6]) and in assay [3] (setting [8]) were 60% and 90%, respectively.

`CC#CCOC(=O)C(C)OC(=O)c1cc(-n2c(=O)n(C)c(=S)n(C)c2=O)c(F)cc1Cl` (stereo not shown) [Compound 287]: in assay [1], the “control effects on zinnia” value is 100%. In addition, the “Herbicidal activity for Zinnia, control effect %” value in assay [1] (setting [5]) turned out to be 80%; in assay [1] (setting [6]) it was 100%. In assay [2] (setting [7]), the “control effects on piemarker” value worked out at 100%. Moreover, the entries for the “Herbicidal activity for Green Bristlegrass, control effect %” value in assay [3] (setting [6]) and in assay [3] (setting [8]) were 50% and 70%, respectively.

On to `Cn1c(=S)n(C)c(=O)n(-c2cc(C(=O)OCC(=O)OCC3CCCO3)c(Cl)cc2F)c1=O` (stereo not shown) [Compound 246], for which, in assay [1], the “control effects on zinnia” value was 100%. Besides, the “Herbicidal activity for Zinnia, control effect %” value in assay [1] (setting [5]) and in assay [1] (setting [6]) was 95% throughout. Further, in assay [2] (setting [7]), the “control effects on piemarker” value turned out to be 100%. The “Herbicidal activity for Green Bristlegrass, control effect %” value in assay [3] (setting [6]) was determined as 80%; in assay [3] (setting [8]), 90%. For the same compound, the “Herbicidal activity for Barnyard Grass, control effect %” value is recorded as 95% in assay [4] (setting [6]) and 98% in assay [4] (setting [8]).
